We go through 13 molecules from patent US5358936A, “Anionic furanose derivatives, methods of making and using the same” (Gordon; Paul, priority 1991, dated 1994).

In data set [1] the test system is rat paw. The experiment in a line: Post-ischemic reperfusion paw swelling (Example 22). The data set is classed as in vivo, Sprague Dawley male rats. The note with it: for Swelling change as a result of treatment: 30 minutes; for Post-ischemic reperfusion 30 minute paw swelling, Mn ± SE: P < 0.02. The text has this: This important disease model is used to evaluate aspects of tissue injury that occur in heart attack, or myocardial infarction, and stroke. Under these conditions, a significant period of injury can occur after blood flow has been restored, during the period of reperfusion.
To produce ischemia, blood flow to the left hind foot was largely interrupted by application of a tourniquet made up of two size 18 rubber bands wound eight times around the leg just behind the heel. […] Both application and removal of tourniquet were carried out under ether anesthesia. Injury was equated with organ swelling, which was assayed by measurement of the dorsoventral foot diameter with a Schnelltaster caliper, just before application of the tourniquet and at various times following tourniquet removal, during the reperfusion period.
Rats employed were Sprague Dawley males, weighing 240-280 grams. Drug comparisons were made here employing measurements 30 minutes into the reperfusion period. The widely studied drug allopurinol, a xanthine oxidase inhibitor and a free radical scavenging agent, used in the treatment of gout, and widely used to suppress experimental post-ischemic reperfusion injury was used as an experimental treatment standard. In studies below, allopurinol and all new drugs were given intraperitoneally 45-60 minutes prior to application of the tourniquet. Data are reported as the mean swelling (Mn)±standard error (SE). […] Group n is 5 or 6.
In another study, drug comparisons were made at various times after the reperfusion period. In this study, control and drug treatment groups were as above.

Data set [2] has as its system rat paw. The settings on record: in vivo; cited from earlier work.
The subject of another data set is platelet aggregation. The experiment in a line: Mouse tail bleeding time (Example 31 B). The data set is classed as in vivo. The settings on record: 100 mg/kg intraperitoneal. The protocol: A study of mouse tail bleeding time, which is an in vivo model of platelet aggregation and thrombosis was also conducted. In this widely employed model, bleeding was induced by a standardized transection of the tail tip and subsequent bleeding time was determined after vertical immersion of the tails in isotonic saline at 37° C. for thirty seconds.
Two compounds of the invention, Compound III and Compound VIII, were assessed as compared with aspirin, in another study of mouse tail bleeding time. In this study, the mice were housed in a standard animal room rather than in a noisy small animal isolator. Also, all three drugs were administered by an intraperitoneal route, rather than a subcutaneous route for Compound III and an intraperitoneal route for aspirin.

For the next data set, the system named is stomach ulcers. Briefly: Gastric ulcers in rats with corona virus infection treated with indomethacin (Example 26). The data set is classed as in vivo, rat. The note with it: indomethacin 30 mg/kg oral. The text has this: Corona virus is a non-lethal upper respiratory viral pathogen that not infrequently infects rat colonies. It is a type of rodent coryza or catarrh, the equivalent of a disease that falls somewhere between human influenza and a severe common cold. The animals of this study suffered from this condition, a circumstance which was evident by observation, and which was confirmed by virological diagnosis at the Biological Resources Laboratory of the University of Illinois at Chicago. Since stress is a common component of peptic ulcer development in both animals and man, it was concluded that this feature of the status of these experimental animals rendered them appropriate for an ulcer study.
In this study, animals were not food deprived and were divided into treatment groups such that 15 rats received 30 mg/kg indomethacin alone (in water by oral gavage), 14 rats received indomethacin plus an injection of 25 mg/kg cimetidine subcutaneously, and 7 rats received indomethacin plus subcutaneous injection of 17.5 mg/kg of Compound III.
All animals were sacrificed by ether euthanasia 24 hours later and their stomachs evaluated for ulcer pathology. In this study ulcers were not hemorrhagic. Results are shown below as the average number of stomach ulcers per stomach.

A further data set has as its system peritoneal neutrophils. The experiment in a line: In vitro neutrophil chemotaxis toward zymosan-activated rat serum (Example 24). The data set is classed as cell-based, mouse. The settings on record: for IC50: 6 h, read-out: ID50 (molar concentration that inhibited chemotaxis by 50 percent). Here is the method: In vitro neutrophil chemotaxis studies were carried out by standard methods, as follows:
Mice were injected with complete Freund's adjuvant (CFA) and peritoneal cells, principally neutrophjls (>90 percent), were reproved from the mice 24 hours thereafter. Blind-well chemotactic chambers (Nucleopore Corp., Pleasanton, Calif.) were utilized.
Medium (RPMI 1640 plus 10 percent fetal calf serum) or medium plus 20 percent zymosan-activated rat serum (ZAS) was added to the lower compartment of each chamber. A nucleopore filter (8 μm pore size) was placed between compartments and 1×10^5 peritoneal neutrophils (above) suspended in medium were placed in the upper compartment. Chambers were incubated for six hours, after which time the filters were removed and stained with Giemsa stain. The number of cells on the lower surface of the filter was counted under a microscope. Treatment groups were assayed in duplicate.
The studies were carried out more specifically as follows:
Zymosan (Sigma Chemical Co., St. Louis, Mo.) was mixed with rat serum for one hour at 37° C. at 1 milligram (mg)/ml. The resulting chemoattractant composition was filtered, aliquotted and stored frozen at -70° C. prior to use.
The above chemoattractant composition was used as a 20 percent v/v solution in medium.
The chemotaxis chambers were arranged as follows:
The chambers were incubated at 37° C. for six hours, after which the chambers were dismantled, and the filters removed and treated as follows:
a) The filters were immersed in Giemsa stain diluted 1:50 for 30-45 minutes.
b) The stained filters were rinsed gently in distilled water for 3-5 minutes.
c) The stained, rinsed filters were air dried without blotting.
Several compounds described herein and control compounds ("drug", above) were examined at various concentrations, in duplicate. The molar concentration of a drug that inhibited the observed chemotaxis by 50 percent, defined as the ID50 value, was determined as shown below.

Data set [3] can be described thus: Dissolution and buffering of suspensions, HCl titration (Example 16).
From the text: Note that the term "apparent pK" in this context is meant to encompass the maximization of buffering that come both from solid-state dissolution and its titration as solute.
Setting [4] is: Mus musculus, Neutrophil, read-out: Percent Inhibition of chemotaxis.
The mark [5] stands for this setting: Mus musculus, Neutrophil, 20 percent zymosan-activated rat serum, six hours, 37° C.
Setting [6] is: Mus musculus, Neutrophil, dose 1.0 μg/ml, read-out: Percent Inhibition of chemotaxis.
Where [7] appears, read: Mus musculus, Neutrophil, dose 0.1 μg/ml, read-out: Percent Inhibition of chemotaxis.
[8] abbreviates: Mus musculus, Neutrophil, dose 10.0 μg/ml, read-out: Percent Inhibition of chemotaxis.

Where a name gives a salt, the structure may show the parent alone. Read-outs that look alike come from different tables or passages of the source.

For `Oc1ncnc2[nH]ncc12` [Allopurinol, reference compound], the “Swelling change as a result of treatment” value with rat paw [1] (study B, i.p., Compound III 0.2 mg/kg, allopurinol 20 mg/kg) is -35%. For the same molecule, in the data set with rat paw [1] (study B, i.p., Compound III 0.2 mg/kg, allopurinol 20 mg/kg, control 20.5 ± 0.76), the “Post-ischemic reperfusion 30 minute paw swelling, Mn ± SE” value was 13.3 ± 0.56 0.1 mm. Further, in the data set with rat paw [2], the “effect on edema that develops following removal of the tourniquet, in words” value (shortened to “effect”) is on record as “suppress the edema” and the “near toxic level at which allopurinol is utilized in reperfusion injury” value is 20 to 30 mg/kg.

For the molecule `CC(=O)Oc1ccccc1C(=O)O` [Aspirin, reference compound], the “% Increase in bleeding time” value in the data set with platelet aggregation was 97%. The “Mouse Tail Bleeding Time” value in the data set on platelet aggregation (control 37.0 ± 5.25) was determined as 72.88 ± 10.9 s.

For the molecule `CN/C(=N/CCSCc1nc[nH]c1C)NC#N` [Cimetidine, reference compound], in the data set on stomach ulcers (cimetidine 25 mg/kg s.c. or Compound III 17.5 mg/kg s.c.), the “Percent Inhibition of ulcer frequency” value was determined as 58%. Besides, the “Ulcer Frequency per stomach, Mn ± SE” value in the data set on stomach ulcers (cimetidine 25 mg/kg s.c. or Compound III 17.5 mg/kg s.c. where given, P<0.02) was 1.07 ± 0.25 Per Stomach.

On to `O=S(=O)(O)OC[C@@H](OS(=O)(=O)O)[C@H]1O[C@H](O)[C@H](O)[C@H]1OS(=O)(=O)O` [Compound II, 3,5,6-Tri-O-sulfo-α-D-glucofuranose, tripotassium salt], for which the IC50 with peritoneal neutrophils (Mus musculus, Neutrophil) is 30 µM. Besides, in the data set with peritoneal neutrophils (setting [4]), the inhibition (commonly the relative decrease from the control value, in per cent) at 0.1 µg/mL came out at 2.5%; the inhibition at 1 µg/mL came out at 45.5%; the inhibition at 10 µg/mL was found to be 48.5%.

Consider `CCCCC1(CCCC)O[C@H]2O[C@H]([C@@H](COS(=O)(=O)O)OS(=O)(=O)O)[C@H](OS(=O)(=O)O)[C@H]2O1` [Compound IV, 1,2-O-(5-Nonylidene)-3,5,6-tri-O-sulfo-α-D-glucofuranose, tripotassium salt], for which, in the data set with peritoneal neutrophils (setting [5]), the IC50 is more than 10 µM. In addition, the inhibition at 1 µg/mL in the data set with peritoneal neutrophils (setting [6]) was found to be 44%. Besides, in the data set on peritoneal neutrophils (dose 1.0 μg/ml, tripotassium salt), the “Percent Inhibition of chemotaxis” value is 28.5%. The “Post-ischemic reperfusion 30 minute paw swelling, Mn ± SE” value with rat paw [1] (study D, 0.2 mg/kg i.p., control 11.4 ± 0.51) is on record as 21.2 ± 2.25 0.1 mm. Further, the “Swelling change as a result of treatment” value in the data set on rat paw [1] (study D, 0.2 mg/kg i.p., edema enhancement) is reported as “+86%”.

Take `CCC1(CC)O[C@H]2O[C@H]([C@@H](COS(=O)(=O)O)OS(=O)(=O)O)[C@H](OS(=O)(=O)O)[C@H]2O1` [Compound V, 1,2-O-(3-Pentylidene)-3,5,6-tri-O-sulfo-α-D-glucofuranose, tripotassium salt]: the IC50 in the data set on peritoneal neutrophils (setting [5]) worked out at 2 µM. Also, the inhibition at 0.1 µg/mL in the data set with peritoneal neutrophils (setting [7]) was -8%. The inhibition at 1 µg/mL in the data set with peritoneal neutrophils (setting [6]) turned out to be 62%. The inhibition at 10 µg/mL in the data set with peritoneal neutrophils (setting [8]) came out at 101%.

As for `O=S(=O)(O)OC[C@H]1O[C@H](OS(=O)(=O)O)[C@H](O)[C@@H](OS(=O)(=O)O)[C@@H]1O` [Compound VII, 1,3,6-Tri-O-sulfo-α-D-glucopyranose, tripotassium salt, reference compound], the IC50 with peritoneal neutrophils (Mus musculus, Neutrophil) was less than 100 µM. Also, in the data set on peritoneal neutrophils (setting [4]), the inhibition at 0.1 µg/mL worked out at 8%, the inhibition at 1 µg/mL came out at 23% and the inhibition at 10 µg/mL amounted to 29%.

Take `C[C@@H]1C[C@H]2[C@@H]3CCC4=CC(=O)C=C[C@]4(C)[C@@]3(F)[C@@H](O)C[C@]2(C)[C@@]1(O)C(=O)CO` [Dexamethasone]: in the data set with rat paw [2], the “effect” value was “effective only when administered more than three hours in advance”.

On to `CCCCC[C@H](O)/C=C/[C@H]1[C@H](O)CC(=O)[C@@H]1C/C=C\CCCC(=O)O` [PGE2, Prostaglandin E2, reference compound], for which the IC50 in the data set on peritoneal neutrophils (setting [5]) stood at 0.1 µM. The inhibition at 0.01 µg/mL with peritoneal neutrophils (Mus musculus, Neutrophil, dose 0.01 μg/ml, read-out: Percent Inhibition of chemotaxis) was found to be 71%. The inhibition at 0.1 µg/mL in the data set on peritoneal neutrophils (setting [7]) came out at 91.5%. Also, in the data set with peritoneal neutrophils (Mus musculus, Neutrophil, dose 0.2 μg/ml, read-out: Percent Inhibition of chemotaxis), the inhibition at 0.2 µg/mL was 71.5%. For the same molecule, the “relative activity in inhibiting neutrophil chemotaxis, in words” value with peritoneal neutrophils (in vitro) was “about equally as active as Compound III”.

In the case of `C[C@]12C=CC(=O)C=C1CC[C@@H]1[C@@H]2C(=O)C[C@@]2(C)[C@H]1CC[C@]2(O)C(=O)CO` [Prednisone, reference compound], in the data set on peritoneal neutrophils (setting [5]), the IC50 is more than 50 µM. Besides, the inhibition at 0.1 µg/mL in the data set with peritoneal neutrophils (setting [7]) amounted to 15.5%. For the same molecule, the inhibition at 1 µg/mL in the data set on peritoneal neutrophils (setting [6]) was found to be 16%. Moreover, the inhibition at 10 µg/mL in the data set on peritoneal neutrophils (setting [8]) stood at 20%.

As to `CC(=O)Nc1ccc(C=Cc2ccc(N=C=S)cc2S(=O)(=O)O)c(S(=O)(=O)O)c1` [SITS, 4-acetamido-4'-isothiocyano-stilbene-2,2'-disulfonate, reference compound], the IC50 in the data set with peritoneal neutrophils (Mus musculus, Neutrophil) was more than 20 µM. Moreover, in the data set with peritoneal neutrophils (setting [4]), the inhibition at 0.1 µg/mL was 18.5%, the inhibition at 1 µg/mL is -12.5% and the inhibition at 10 µg/mL stood at 48.5%.

As for `[OH][Al]([OH])[OH]` [aluminum trihydroxide, reference compound], the “HCl needed to lower pH of suspension to below pH 2.00” value in data set [3] (50 mg in 20 ml distilled water, initial pH 4.44 (aluminum trihydroxide), 4.91 (sucralfate), 4.23 (Compound III:Al), water alone 0.30) is recorded as 0.90 meq. For the same molecule, the “buffering action, in words” value in data set [3] (HCl titration) is listed as “only minor buffering power relative to distilled H2 O, but no pK”.

In the case of `O=C(O)Cc1ccccc1Nc1c(Cl)cccc1Cl` [diclofenac], the “effect” value in the data set on rat paw [2] is “not effective at any time”.
